# Results published in ChEMBL document CHEMBL5661979, “Pharmacological inhibition of BMK1 suppresses tumor growth through promyelocytic leukemia protein” (Cancer Cell, 2010).
# Calls of active or inactive are those of the source. The rule behind the calls is not given here.
# Biological target: Mitogen-activated protein kinase; ERK1/ERK2 (Homo sapiens) (UniProt P27361+P28482)
# Experiment: Inhibition of ERK1/2 in human HeLa cells assessed as reduction in EGF-induced ERK1/2 phosphorylation level at T202/Y204 residue at 1 uM pre incubated for 1 hr followed by EGF stimulation and measured after 17 mins by Western blot analysis
# Assay type: cell-based
# Conditions: time 77.0 min
# Sequence of Mitogen-activated protein kinase; ERK1/ERK2 (Homo sapiens) (P27361 whole entry, looked up): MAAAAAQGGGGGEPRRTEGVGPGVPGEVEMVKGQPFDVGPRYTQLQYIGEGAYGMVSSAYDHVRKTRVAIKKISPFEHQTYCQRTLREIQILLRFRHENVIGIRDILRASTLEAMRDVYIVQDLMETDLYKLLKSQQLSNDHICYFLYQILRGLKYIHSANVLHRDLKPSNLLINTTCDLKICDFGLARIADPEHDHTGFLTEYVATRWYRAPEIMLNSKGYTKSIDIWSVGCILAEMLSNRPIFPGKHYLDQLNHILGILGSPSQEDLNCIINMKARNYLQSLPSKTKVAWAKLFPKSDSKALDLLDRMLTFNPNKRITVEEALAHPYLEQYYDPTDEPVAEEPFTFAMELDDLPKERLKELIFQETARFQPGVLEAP
# Sequence of Mitogen-activated protein kinase; ERK1/ERK2 (Homo sapiens) (P28482 whole entry, looked up): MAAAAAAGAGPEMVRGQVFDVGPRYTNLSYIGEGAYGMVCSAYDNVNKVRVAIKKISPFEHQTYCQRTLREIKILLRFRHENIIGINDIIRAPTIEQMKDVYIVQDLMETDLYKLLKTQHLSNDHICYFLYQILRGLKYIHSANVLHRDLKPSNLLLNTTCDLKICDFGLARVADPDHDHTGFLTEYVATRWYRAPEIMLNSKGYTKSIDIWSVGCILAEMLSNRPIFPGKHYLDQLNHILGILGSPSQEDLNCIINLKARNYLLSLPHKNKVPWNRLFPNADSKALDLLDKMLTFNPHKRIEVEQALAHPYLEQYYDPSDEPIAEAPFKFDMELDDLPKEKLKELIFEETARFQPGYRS
structure (smiles),measurement,value
O=C(NOCC1CC1)c1ccc(F)c(F)c1Nc1ccc(I)cc1Cl,inhibition,Active
